For data set [1], the target named is T1, Amine oxidase [flavin-containing] A (Homo sapiens, UniProt P21397).
T1 sequence (P21397 whole entry): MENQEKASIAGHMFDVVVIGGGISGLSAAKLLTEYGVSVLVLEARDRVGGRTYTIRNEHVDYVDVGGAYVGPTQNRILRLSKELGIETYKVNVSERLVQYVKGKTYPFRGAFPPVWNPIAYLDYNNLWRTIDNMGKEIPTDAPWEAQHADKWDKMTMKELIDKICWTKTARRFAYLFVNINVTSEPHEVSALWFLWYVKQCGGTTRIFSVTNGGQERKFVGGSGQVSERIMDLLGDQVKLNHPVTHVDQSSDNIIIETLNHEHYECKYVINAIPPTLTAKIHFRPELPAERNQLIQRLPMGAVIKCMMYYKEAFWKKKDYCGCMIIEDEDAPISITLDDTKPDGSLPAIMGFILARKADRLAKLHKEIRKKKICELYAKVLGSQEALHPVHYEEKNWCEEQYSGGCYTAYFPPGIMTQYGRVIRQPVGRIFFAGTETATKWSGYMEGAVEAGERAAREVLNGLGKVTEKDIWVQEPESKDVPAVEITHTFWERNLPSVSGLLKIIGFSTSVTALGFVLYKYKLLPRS
Briefly: Competitive inhibition of human MAOA by spectrophotometry.

The target in data set [2] is T2, Amine oxidase [flavin-containing] A (Rattus norvegicus, UniProt P21396).
T2 sequence (P21396 whole entry): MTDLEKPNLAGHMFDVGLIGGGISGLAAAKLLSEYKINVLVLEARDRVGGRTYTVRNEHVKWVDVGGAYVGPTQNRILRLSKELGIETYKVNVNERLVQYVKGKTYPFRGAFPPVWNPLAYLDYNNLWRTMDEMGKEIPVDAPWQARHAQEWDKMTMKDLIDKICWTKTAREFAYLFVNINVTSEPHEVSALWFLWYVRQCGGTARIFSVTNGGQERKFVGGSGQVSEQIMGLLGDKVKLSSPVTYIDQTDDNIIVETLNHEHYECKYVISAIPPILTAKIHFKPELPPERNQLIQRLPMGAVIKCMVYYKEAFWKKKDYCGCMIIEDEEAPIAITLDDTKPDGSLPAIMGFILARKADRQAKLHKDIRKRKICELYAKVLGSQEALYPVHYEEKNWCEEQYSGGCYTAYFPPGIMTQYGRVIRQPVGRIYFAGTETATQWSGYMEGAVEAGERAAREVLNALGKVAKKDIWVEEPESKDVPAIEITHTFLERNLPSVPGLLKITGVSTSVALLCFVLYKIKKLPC
Briefly: Competitive inhibition of rat MAOA by spectrophotometry.

In data set [3] the target is T3, Amine oxidase [flavin-containing] (Danio rerio, UniProt Q6NSN2).
T3 sequence (Q6NSN2 whole entry): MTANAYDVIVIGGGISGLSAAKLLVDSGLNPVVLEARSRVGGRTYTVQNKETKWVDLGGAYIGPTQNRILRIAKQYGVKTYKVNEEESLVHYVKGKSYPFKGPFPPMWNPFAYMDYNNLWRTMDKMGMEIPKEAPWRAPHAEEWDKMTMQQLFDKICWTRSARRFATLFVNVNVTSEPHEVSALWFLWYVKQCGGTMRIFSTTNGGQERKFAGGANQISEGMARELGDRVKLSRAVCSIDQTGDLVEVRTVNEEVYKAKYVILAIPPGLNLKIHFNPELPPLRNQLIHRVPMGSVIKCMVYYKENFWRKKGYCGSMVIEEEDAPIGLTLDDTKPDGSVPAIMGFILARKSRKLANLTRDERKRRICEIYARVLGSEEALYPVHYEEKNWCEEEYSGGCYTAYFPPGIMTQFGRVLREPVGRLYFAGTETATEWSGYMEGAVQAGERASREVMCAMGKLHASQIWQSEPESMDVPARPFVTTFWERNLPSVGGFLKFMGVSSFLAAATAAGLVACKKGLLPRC
Briefly: Competitive inhibition of zebrafish MAO by spectrophotometry.

Data set [4] concerns the target T4, Amine oxidase [flavin-containing] B (Rattus norvegicus, UniProt P19643).
T4 sequence (P19643 whole entry): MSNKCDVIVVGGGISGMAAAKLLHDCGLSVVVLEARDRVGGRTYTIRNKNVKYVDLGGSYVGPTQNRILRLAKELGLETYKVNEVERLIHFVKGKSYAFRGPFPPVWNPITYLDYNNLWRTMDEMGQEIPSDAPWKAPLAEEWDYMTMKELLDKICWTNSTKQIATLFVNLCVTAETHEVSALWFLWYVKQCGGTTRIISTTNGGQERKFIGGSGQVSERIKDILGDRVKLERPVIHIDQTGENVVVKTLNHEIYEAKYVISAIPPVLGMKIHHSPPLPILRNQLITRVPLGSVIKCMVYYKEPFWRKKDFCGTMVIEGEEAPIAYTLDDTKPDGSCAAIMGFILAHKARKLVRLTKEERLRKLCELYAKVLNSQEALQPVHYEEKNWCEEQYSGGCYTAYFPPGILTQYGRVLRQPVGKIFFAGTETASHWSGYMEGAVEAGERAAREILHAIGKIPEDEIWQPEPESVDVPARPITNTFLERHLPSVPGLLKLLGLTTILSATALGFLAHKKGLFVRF
Briefly: Competitive inhibition of rat MAO B by spectrophotometry.

A further data set deals with Serum. Briefly: Drug level in parkinson's disease patient serum at 25 mg/day. The following applies: human, read-out: Drug uptake. The format is ADME, cell-free.
For data set [5], the target named is T5, Amine oxidase [flavin-containing] B (Homo sapiens, UniProt P27338).
T5 sequence (P27338 whole entry): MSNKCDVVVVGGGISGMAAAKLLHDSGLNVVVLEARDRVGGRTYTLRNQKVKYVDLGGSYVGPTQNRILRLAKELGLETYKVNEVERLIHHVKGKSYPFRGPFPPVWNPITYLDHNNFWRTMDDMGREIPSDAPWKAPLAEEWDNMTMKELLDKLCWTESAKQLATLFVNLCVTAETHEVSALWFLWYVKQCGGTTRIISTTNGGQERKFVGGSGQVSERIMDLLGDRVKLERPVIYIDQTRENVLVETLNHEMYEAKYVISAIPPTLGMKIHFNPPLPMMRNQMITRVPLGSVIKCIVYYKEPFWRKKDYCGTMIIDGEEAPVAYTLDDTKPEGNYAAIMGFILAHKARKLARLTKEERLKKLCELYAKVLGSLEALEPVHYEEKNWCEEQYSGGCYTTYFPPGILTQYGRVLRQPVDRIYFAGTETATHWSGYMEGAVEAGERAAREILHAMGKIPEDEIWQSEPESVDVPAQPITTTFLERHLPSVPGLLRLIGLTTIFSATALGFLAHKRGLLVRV
The experiment in a line: Competitive inhibition of human MAO B by spectrophotometry.

For `NS(=O)(=O)Cc1noc2ccccc12` [ZONISAMIDE], the “inhibition (INH)” value in data set [1] and in data set [2] was “Not Active” throughout. The inhibition constant Ki in data set [3] was 30.8 µM; in data set [4], 2.9 µM; in data set [5], 3.1 µM. Further, the concentration in the data set with Serum amounted to 600 nM.

The term Ki denotes a dissociation constant, usually derived from enzyme kinetics or from competition with a known ligand. A higher Ki goes with a looser hold on the target.

The values above are taken from ChEMBL document CHEMBL1671819, “Interactions of monoamine oxidases with the antiepileptic drug zonisamide: specificity of inhibition and structure of the human monoamine oxidase B complex” (J Med Chem, 2011).
